# In PMC10866072, “Design, synthesis, molecular modelling and biological evaluation of novel 6-amino-5-cyano-2-thiopyrimidine derivatives as potent anticancer agents against leukemia and apoptotic inducers” (Journal of Enzyme Inhibition and Medicinal Chemistry, 2024):
# Tests used:
# [1] = test system: SR; assay type: cell-based; conditions: Homo sapiens, one dose 10^-5 M, 48 h
# [2] = test system: A498; assay type: cell-based; conditions: Homo sapiens, one dose 10^-5 M, 48 h
# [3] = test system: A549/ATCC; assay type: cell-based; conditions: Homo sapiens, one dose 10^-5 M, 48 h
# [4] = test system: HL-60(TB); assay type: cell-based; conditions: Homo sapiens, one dose 10^-5 M, 48 h
# [5] = test system: SW-620; assay type: cell-based; conditions: Homo sapiens, one dose 10^-5 M, 48 h
# [6] = test system: MDA-MB-435; assay type: cell-based; conditions: Homo sapiens, one dose 10^-5 M, 48 h, read-out: % growth
# [7] = test system: MALME-3M; assay type: cell-based; conditions: Homo sapiens, one dose 10^-5 M, 48 h
# [8] = test system: SNB-75; assay type: cell-based; conditions: Homo sapiens, one dose 10^-5 M, 48 h
# [9] = test system: K-562; assay type: cell-based; conditions: Homo sapiens, K562, one dose 10^-5 M, 48 h
# [10] = test system: SK-MEL-2; assay type: cell-based; conditions: Homo sapiens, one dose 10^-5 M, 48 h
# [11] = test system: SK-MEL-28; assay type: cell-based; conditions: Homo sapiens, one dose 10^-5 M, 48 h
# [12] = test system: HT29; assay type: cell-based; conditions: Homo sapiens, HT-29, one dose 10^-5 M, 48 h
# [13] = test system: full NCI 60 cell lines panel; conditions: Homo sapiens, 60 cell, 48 h, read-out: Mean % growth
# [14] = test system: OVCAR-5; assay type: cell-based; conditions: Homo sapiens, one dose 10^-5 M, 48 h
# [15] = test system: TK-10; assay type: cell-based; conditions: Homo sapiens, one dose 10^-5 M, 48 h
# [16] = test system: HCC-2998; assay type: cell-based; conditions: Homo sapiens, one dose 10^-5 M, 48 h
# [17] = test system: MDA-MB-468; assay type: cell-based; conditions: Homo sapiens, one dose 10^-5 M, 48 h
# [18] = test system: OVCAR-8; assay type: cell-based; conditions: Homo sapiens, one dose 10^-5 M, 48 h
# [19] = test system: NCI-H226; assay type: cell-based; conditions: Homo sapiens, one dose 10^-5 M, 48 h
# [20] = test system: HS 578T; assay type: cell-based; conditions: Homo sapiens; one dose 10^-5 M, 48 h; HS 578T; read-out: % growth
# [21] = test system: SNB-19; assay type: cell-based; conditions: Homo sapiens, one dose 10^-5 M, 48 h, read-out: % growth
# [22] = test system: ACHN; assay type: cell-based; conditions: Homo sapiens, one dose 10^-5 M, 48 h
# [23] = test system: NCI-H522; assay type: cell-based; conditions: Homo sapiens, one dose 10^-5 M, 48 h
# [24] = test system: RXF 393; assay type: cell-based; conditions: Homo sapiens, RXF 393, 48 h, one dose 10^-5 M, 48 h, read-out: % growth
# [25] = test system: HCT-116; assay type: cell-based; conditions: Homo sapiens, one dose 10^-5 M, 48 h, read-out: % growth
# [26] = test system: HOP-62; assay type: cell-based; conditions: Homo sapiens, one dose 10^-5 M, 48 h
# [27] = test system: RPMI-8226; assay type: cell-based; conditions: Homo sapiens, one dose 10^-5 M, 48 h
# [28] = test system: OVCAR-4; assay type: cell-based; conditions: Homo sapiens, one dose 10^-5 M, 48 h
# [29] = test system: KM12; assay type: cell-based; conditions: Homo sapiens, one dose 10^-5 M, 48 h
# [30] = test system: HCT-15; assay type: cell-based; conditions: Homo sapiens, one dose 10^-5 M, 48 h, read-out: % growth
# [31] = test system: SF-295; assay type: cell-based; conditions: Homo sapiens, one dose 10^-5 M, 48 h
# [32] = test system: MOLT-4; assay type: cell-based; conditions: Homo sapiens, one dose 10^-5 M, 48 h, read-out: % growth
# [33] = test system: UACC-257; assay type: cell-based; conditions: Homo sapiens, one dose 10^-5 M, 48 h
# [34] = test system: EKVX; assay type: cell-based; conditions: Homo sapiens, one dose 10^-5 M, 48 h
# [35] = test system: LOX IMVI; assay type: cell-based; conditions: Homo sapiens, one dose 10^-5 M, 48 h, read-out: % growth
# [36] = test system: OVCAR-3; assay type: cell-based; conditions: Homo sapiens, one dose 10^-5 M, 48 h
# [37] = test system: CAKI-1; assay type: cell-based; conditions: Homo sapiens, CAKI-1, 48 h, one dose 10^-5 M, 48 h
# [38] = test system: DU-145; assay type: cell-based; conditions: Homo sapiens, one dose 10^-5 M, 48 h
# [39] = test system: MCF7; assay type: cell-based; conditions: Homo sapiens, one dose 10^-5 M, 48 h, read-out: % growth
# [40] = test system: SK-MEL-5; assay type: cell-based; conditions: Homo sapiens, one dose 10^-5 M, 48 h, read-out: % growth
# [41] = test system: U251; assay type: cell-based; conditions: Homo sapiens, U-251, one dose 10^-5 M, 48 h
# [42] = test system: SK-OV-3; assay type: cell-based; conditions: Homo sapiens, one dose 10^-5 M, 48 h
# [43] = test system: NCI-H23; assay type: cell-based; conditions: Homo sapiens, one dose 10^-5 M, 48 h, read-out: % growth
# [44] = test system: SF-268; assay type: cell-based; conditions: Homo sapiens, one dose 10^-5 M, 48 h, read-out: % growth
# [45] = test system: NCI-H460; assay type: cell-based; conditions: Homo sapiens, one dose 10^-5 M, 48 h, read-out: % growth
# [46] = test system: M14; assay type: cell-based; conditions: Homo sapiens, one dose 10^-5 M, 48 h
# [47] = test system: T-47D; assay type: cell-based; conditions: Homo sapiens, T47D, one dose 10^-5 M, 48 h, read-out: % growth
# [48] = test system: UO-31; assay type: cell-based; conditions: Homo sapiens, UO-31, 48 h, one dose 10^-5 M, 48 h
# [49] = test system: PC-3; assay type: cell-based; conditions: Homo sapiens, one dose 10^-5 M, 48 h
# [50] = test system: IGROV1; assay type: cell-based; conditions: Homo sapiens, IGROV-1, one dose 10^-5 M, 48 h, read-out: % growth
# [51] = test system: 786-0; assay type: cell-based; conditions: Homo sapiens, one dose 10^-5 M, 48 h
# [52] = test system: SF-539; assay type: cell-based; conditions: Homo sapiens, one dose 10^-5 M, 48 h
# [53] = test system: CCRF-CEM; assay type: cell-based; conditions: Homo sapiens, one dose 10^-5 M, 48 h
# [54] = test system: HOP-92; assay type: cell-based; conditions: Homo sapiens, one dose 10^-5 M, 48 h
# [55] = test system: SN12C; assay type: cell-based, human; conditions: Homo sapiens, one dose 10^-5 M, 48 h
# [56] = test system: UACC-62; assay type: cell-based; conditions: Homo sapiens, one dose 10^-5 M, 48 h
# [57] = test system: MDA-MB-231/ATCC; assay type: cell-based; conditions: Homo sapiens, one dose 10^-5 M, 48 h
smiles,measurement,setting,value
"N=C(NN=Cc1ccc(Cl)cc1Cl)c1c(N)nc(S)nc1-c1ccc(Cl)cc1 [Compound 4l, 4-amino-6–(4-chlorophenyl)-N'-[(2,4-dichlorophenyl)methylene]-2-mercapto pyrimidine-5-carboximidohydrazide]",percent cell growth at 10 µM,[1],65.6%
same,% growth at 10 µM,[2],6.77%
same,% growth at 10 µM,[3],90.7%
same,% growth at 10 µM,[4],101%
same,% growth at 10 µM,[5],95.8%
same,activity at 10 µM,[6],89%
same,% growth at 10 µM,[7],43.4%
same,% growth at 10 µM,[8],26.1%
same,% growth at 10 µM,[9],77.1%
same,% growth at 10 µM,[10],83.3%
same,% cell growth at 10 µM,[11],75.8%
same,% growth at 10 µM,[12],87%
same,activity at 10 µM,[13],68.3%
same,percent cell growth at 10 µM,[14],73.2%
same,% cell growth at 10 µM,[15],98.8%
same,% growth at 10 µM,[16],95%
same,percent cell growth at 10 µM,[17],88.4%
same,% growth of cells at 10 µM,[18],90%
same,% growth at 10 µM,[19],62.4%
same,activity at 10 µM,[20],36.4%
same,activity at 10 µM,[21],84%
same,% growth at 10 µM,[22],53.2%
same,% growth at 10 µM,[23],62.3%
same,activity at 10 µM,[24],31.2%
same,activity at 10 µM,[25],84.2%
same,% growth at 10 µM,[26],53%
same,% growth at 10 µM,[27],46.5%
same,% growth at 10 µM,[28],79.2%
same,% growth at 10 µM,[29],79.8%
same,activity at 10 µM,[30],77.4%
same,% cell growth at 10 µM,[31],85%
same,activity at 10 µM,[32],66.4%
same,percent cell growth at 10 µM,[33],96.5%
same,% cell growth at 10 µM,[34],59%
same,activity at 10 µM,[35],69.4%
same,% growth at 10 µM,[36],80.2%
same,% growth at 10 µM,[37],37%
same,% growth at 10 µM,[38],79.3%
same,activity at 10 µM,[39],53.1%
same,activity at 10 µM,[40],81%
same,% growth at 10 µM,[41],93.9%
same,% growth at 10 µM,[42],82.1%
same,activity at 10 µM,[43],78.3%
same,activity at 10 µM,[44],73.6%
same,activity at 10 µM,[45],66.3%
same,% growth at 10 µM,[46],76.2%
same,activity at 10 µM,[47],28.1%
same,% cell growth at 10 µM,[48],43.2%
same,percent cell growth at 10 µM,[49],48%
same,activity at 10 µM,[50],44.9%
same,% growth at 10 µM,[51],88.6%
same,% growth at 10 µM,[52],70.3%
same,% cell growth at 10 µM,[53],64.6%
same,% growth at 10 µM,[54],54.9%
same,% growth at 10 µM,[55],65.5%
same,% growth at 10 µM,[56],43.1%
same,% growth at 10 µM,[57],52.7%
